Experimental data reported in patent EP0187355A1, “Process for preparing beta-lactam antibiotics” (E.R. Squibb & Sons, Inc., priority 1981, dated 1982).
Counter-ions that a name gives are not always drawn.

Tests used:
Assay in all cases: MIC, agar dilution
Format in all cases: cell-based
[1] = tested on: Acinetobacter calcoaceticus, 8333; conditions: K-10 agar, 10^4 CFU, 37°C
Description: (§1) The following methodology is used to determine the minimum inhibitory concentration (hereinafter referred to as MIC) of the […] of this invention.
(§2) The test organisms are grown in approximately 15-20 ml of Antibiotic Assay broth (Difco) by inoculating (in tubes) the broth with a loopful of the organism from a BHI (Difco) agar slant. The inoculated tubes are incubated at 37°C for 18 to 20 hours. These cultures are assumed to contain 10^9 colony forming units (hereinafter CFU) per milliliter. The cultures are diluted 1:100 to give a final inoculum level of 10^4 CFU; dilutions are made with K-10 broth^*.
(§3) The compounds are dissolved in the appropriate diluent at a concentration of 1000 µg/ml. Twofold dilutions are made in K-10 broth resulting in a range from 1000 µg/ml to 0.5 µg/ml. 1.5 ml of each dilution is placed into individual square petri dishes to which 13.5 ml of K-10 agar^** is added. The final drug concentration in the agar ranges from 100 µg/ml to 0.05 µg/ml. Organism growth control plates containing agar only are prepared and inoculated before and after the test plates. The organisms are applied to the agar surface of each plate with the Denley Multipoint Inoculator (which delivers approximately 0.001 ml of each organism) resulting in a final inoculum level of 10^4 CFU on the agar surface.
(§4) The plates are incubated at 37 °C for 18 hours and the MIC's are determined. The MIC is the lowest concentration of compound inhibiting growth of the organism.
(§5) The tables that follow are tabulated results obtained when the B-lactams of this invention are tested against various organisms. The number following each organism refers to the number of the organism in the collection of E. R. Squibb & Sons,.Inc., Princeton, New Jersey. […] The symbol "N.T." means not tested.

[2] = tested on: Citrobacter freundii, 9518; conditions: K-10 agar, 10^4 CFU, 37°C
Description: as §1, §2, §3, §4, §5

[3] = tested on: Enterobacter aerogenes, 10078
Description: as §1, §2, §3, §4, §5

[4] = tested on: Escherichia coli, 10857; conditions: K-10 agar, 10^4 CFU, 37°C
Description: as §1, §2, §3, §4, §5

[5] = tested on: Escherichia coli, 10896; conditions: K-10 agar, 10^4 CFU, 37°C, 18 hours
Description: as §1, §2, §3, §4, §5

[6] = tested on: Escherichia coli, 10909; conditions: K-10 agar, 10^4 CFU, 37°C, 18 hours
Description: as §1, §2, §3, §4, §5

[7] = tested on: Escherichia coli, 8294; conditions: K-10 agar, 10^4 CFU, 37°C
Description: as §1, §2, §3, §4, §5

[8] = tested on: Klebsiella aerogenes, 10440; conditions: K-10 agar, 10^4 CFU, 37°C
Description: as §1, §2, §3, §4, §5

[9] = tested on: Klebsiella pneumoniae, 9527; conditions: K-10 agar, 10^4 CFU, 37°C
Description: as §1, §2, §3, §4, §5

[10] = tested on: Proteus mirabilis, 3855; conditions: K-10 agar, 10^4 CFU, 37°C
Description: as §1, §2, §3, §4, §5

[11] = tested on: Proteus rettgeri, 8479; conditions: K-10 agar, 10^4 CFU, 37°C
Description: as §1, §2, §3, §4, §5

[12] = tested on: Proteus vulgaris, 9416; conditions: K-10 agar, 10^4 CFU, 37°C
Description: as §1, §2, §3, §4, §5

[13] = tested on: Pseudomonas aeruginosa, 8329; conditions: K-10 agar, 10^4 CFU, 37°C
Description: as §1, §2, §3, §4, §5

[14] = tested on: Pseudomonas aeruginosa, 9545; conditions: K-10 agar, 10^4 CFU, 37°C
Description: as §1, §2, §3, §4, §5

[15] = tested on: Salmonella typhosa, 1195; conditions: K-10 agar, 10^4 CFU, 37°C
Description: as §1, §2, §3, §4, §5

[16] = tested on: Serratia marcescens, 9783; conditions: K-10 agar, 10^4 CFU, 37°C
Description: as §1, §2, §3, §4, §5

[17] = tested on: Shigella sonnei, 8449; conditions: K-10 agar, 10^4 CFU, 37°C, 18 hours
Description: as §1, §2, §3, §4, §5

[18] = tested on: Staphylococcus aureus, 10165
Description: as §1, §2, §3, §4, §5

[19] = tested on: Staphylococcus aureus, 1276
Description: as §1, §2, §3, §4, §5

[20] = tested on: Staphylococcus aureus, 2399
Description: as §1, §2, §3, §4, §5

[21] = tested on: Staphylococcus aureus, 2400
Description: as §1, §2, §3, §4, §5

[22] = tested on: Streptococcus faecalis, 9011
Description: as §1, §2, §3, §4, §5

[23] = tested on: Micrococcus luteus, 2495; conditions: Micrococcus luteus, 2495, 18 h, K-10 agar, 10^4 CFU, 37°C
Description: as §1, §2, §3
(§6) The MIC is the lowest concentration of compound inhibiting growth of the organism.
(§7) The number following each organism refers to the number of the organism in the collection of E. R. Squibb & Sons,.Inc., Princeton, New Jersey. […] The symbol "N.T." means not tested.

[24] = tested on: Streptococcus agalactiae, 9287; conditions: K-10 agar, 10^4 CFU, 37°C, 18 hours
Description: as §1, §2, §3, §6, §7

Work on `C[C@@H]1[C@H](NC(=O)/C(=N\OC(C)(C)C(=O)O)c2csc(N)n2)C(=O)N1S(=O)(=O)O` [Example 16, [3α(Z),4α]-3-[[(2-Amino-4-thiazolyl) [(1-carboxy-1-methylethoxy)imino]acetyl]amino]-4-methyl-2-oxo-l-azetidinesulfonic acid, potassium salt (1:2)] yielded an MIC ([1]; Acinetobacter calcoaceticus, 8333, 18 h) of 50 µg/mL, an MIC ([2]; Citrobacter freundii, 9518, 18 h) of 0.8 µg/mL and an MIC ([3]; Klebsiella aerogenes, 10078, 18 h) of 0.8 µg/mL. For the same molecule, the MIC ([4]; Escherichia coli, 10857, 18 h) was 0.2 µg/mL, the MIC [5] was 0.2 µg/mL and the MIC [6] was under 0.05 µg/mL. For the same molecule, the MIC ([7]; Escherichia coli, 8294, 18 h) was 0.4 µg/mL, the MIC ([8]; Klebsiella aerogenes, 10440, 18 h) was 0.8 µg/mL and the MIC ([9]; Klebsiella pneumoniae, 9527, 18 h) was 0.1 µg/mL. It also gave an MIC ([10]; Proteus mirabilis, 3855, 18 h) of under 0.05 µg/mL, an MIC ([11]; Providencia rettgeri, 8479, 18 h) of under 0.05 µg/mL and an MIC ([12]; Proteus vulgaris, 9416, 18 h) of under 0.05 µg/mL. The MIC ([13]; Pseudomonas aeruginosa, 8329, 18 h) was 3.1 µg/mL, the MIC ([14]; Pseudomonas aeruginosa, 9545, 18 h) was 0.8 µg/mL and the MIC ([15]; Salmonella enterica, TYPHOSA, 18 h) was under 0.05 µg/mL. The MIC ([16]; Serratia marcescens, 9783, 18 h) was 0.4 µg/mL, the M.I.C. [17] was 0.4 µg/mL and the MIC ([18]; Staphylococcus aureus, 10165, 18 h) was over 100 µg/mL. The MIC ([19]; Staphylococcus aureus, 1276, 18 h) was over 100 µg/mL, the MIC ([20]; Staphylococcus aureus, 2399, 18 h) was over 100 µg/mL and the MIC ([21]; Staphylococcus aureus, 2400, 18 h) was over 100 µg/mL. It also gave an MIC ([22]; Enterococcus faecalis, 9011, 18 h) of over 100 µg/mL, an MIC [23] of 25 µg/mL and a M.I.C. [24] of 50 µg/mL.

`C[C@@H]1[C@H](NC(=O)/C(=N\OC(C)(C)C(=O)O)c2csc(N)n2)C(=O)N1S(=O)(=O)O` [Example 23, [3S-(3α(Z),4a]]-3-[[(2-Amino-4-thiazolyl) [(1-carboxy-1-methylethoxy)imino)acetyl]amino]-4-methyl-2-oxo-l-azetidinesulfonic acid, potassium salt (1:2)] showed a M.I.C. ([1]; 18 hours) of 25 µg/mL, a M.I.C. ([2]; 18 hours) of 0.4 µg/mL and a M.I.C. ([3]; Enterobacter aerogenes, 10078, K-10 agar, 10^4 CFU, 37°C, 18 hours) of 0.8 µg/mL. For the same molecule, the M.I.C. ([4]; 18 hours) was 0.1 µg/mL, the M.I.C. [5] was 0.2 µg/mL and the M.I.C. ([7]; 18 hours) was 0.2 µg/mL. For the same molecule, the M.I.C. ([8]; 18 hours) was 0.4 µg/mL, the M.I.C. ([9]; 18 hours) was 0.05 µg/mL and the M.I.C. ([10]; 18 hours) was 0.05 µg/mL. The M.I.C. ([11]; 18 hours) was 0.05 µg/mL, the M.I.C. ([12]; 18 hours) was 0.05 µg/mL and the M.I.C. ([13]; 18 hours) was 1.6 µg/mL. For the same molecule, the M.I.C. ([14]; 18 hours) was 0.4 µg/mL, the M.I.C. ([15]; 18 hours) was 0.05 µg/mL and the M.I.C. ([16]; 18 hours) was 0.2 µg/mL. The M.I.C. [17] was 0.1 µg/mL, the M.I.C. ([18]; Staphylococcus aureus, 10165, K-10 agar, 10^4 CFU, 37°C, 18 hours) was “- (A dash (-) in the tables means that the compound tested did not show activity against the particular organism at 100 µg/ml)” and the M.I.C. ([19]; Staphylococcus aureus, 1276, K-10 agar, 10^4 CFU, 37°C, 18 hours) was “- (A dash (-) in the tables means that the compound tested did not show activity against the particular organism at 100 µg/ml)”. For the same molecule, the M.I.C. ([20]; Staphylococcus aureus, 2399, K-10 agar, 10^4 CFU, 37°C, 18 hours) was “- (A dash (-) in the tables means that the compound tested did not show activity against the particular organism at 100 µg/ml)”, the M.I.C. ([21]; Staphylococcus aureus, 2400, K-10 agar, 10^4 CFU, 37°C, 18 hours) was “- (A dash (-) in the tables means that the compound tested did not show activity against the particular organism at 100 µg/ml)” and the M.I.C. ([22]; Streptococcus faecalis, 9011, K-10 agar, 10^4 CFU, 37°C, 18 hours) was “- (A dash (-) in the tables means that the compound tested did not show activity against the particular organism at 100 µg/ml)”.
